Data as given in US20200392116A1, “SUBSTITUTED HETEROCYCLES AS c-MYC TARGETING AGENTS” (NORTHWESTERN UNIVERSITY, priority 2019, published 2020).
Read-outs that look alike come from different tables or passages of the source.

What was measured:
[1] = Potency code of Table 2 (assay not stated)
CMV reporter = CMV reporter assay (control reporter beside the Ebox reporter); assay type: cell-based
[2] = test system: MYC transcriptional activity (c-Myc E-box-luciferase reporter, MycCap cells); assay: MYC E-box luciferase reporter assay; assay type: cell-based; settings: Mus musculus, Myc-CaP, read-out: Ebox reporter: IC50
Experimental: To test the compounds, we evaluated the in silico hits in a MYC E-Box luciferase reporter assay to measure the effects of these compounds (referred to as Min-1 to Min-32) on MYC transcriptional activity. […] (See FIG. 2).
MycCap cells stably expressing luciferase with CMV promoter (MycCap-luc) or c-Myc E-box-luciferase reporter (MycCap Ebox-luc) were plated at 10000 cells per well in 96 well white-wall plate. Serial dilutions of 361 were treated next day. At 4 hours of treatment, luminescence signal was determined immediately after adding 150 μg/ml of Luciferin to the well. (See FIG. 12).

Row | Compound | Potency code [1] | other results
1 | CC(C)CCOc1ccc(-c2cc(C(F)(F)F)[nH]n2)c(O)c1-c1ccc(Cl)c(C(F)(F)F)c1 [NUCC-0201634] | ++ (30-40 ++) | 
2 | CC(C)CCOc1ccc(-c2cc(C(F)(F)F)nn2C)c(O)c1-c1ccc(Cl)c(C(F)(F)F)c1 [NUCC-0201635] | + (>40 +) | 
3 | CC(C)CCOc1ccc(-c2cc(C(F)(F)F)[nH]n2)c(O)c1-c1cncc(C(F)(F)F)c1 [NUCC-0201636] | + (>40 +) | 
4 | CCCCOc1ccc(-c2cc(C(F)(F)F)[nH]n2)c(O)c1-c1cncc(C(F)(F)F)c1 [NUCC-0201637] | + (>40 +) | 
5 | CCCCOc1ccc(-c2cc(C(F)(F)F)nn2C)c(O)c1-c1cncc(C#N)c1 [NUCC-0201638] | + (>40 +) | 
6 | CCCCOc1ccc(-c2cc(C(F)(F)F)n(C)n2)c(O)c1-c1cncc(C#N)c1 [NUCC-0201639] | + (>40 +) | 
7 | NCCOc1ccc(-c2cc(C(F)(F)F)n[nH]2)c(O)c1-c1ccc(Cl)c(C(F)(F)F)c1 [NUCC-0201640] | + (>40 +) | 
8 | Cn1nc(-c2ccc(OCCN)c(-c3ccc(Cl)c(C(F)(F)F)c3)c2O)cc1C(F)(F)F [NUCC-0201641] | + (>40 +) | 
9 | Cn1nc(C(F)(F)F)cc1-c1ccc(OCCCN)c(-c2ccc(Cl)c(C(F)(F)F)c2)c1O [NUCC-0201642] | + (>40 +) | 
10 | Cn1nc(-c2ccc(OCCCN)c(-c3ccc(Cl)c(C(F)(F)F)c3)c2O)cc1C(F)(F)F [NUCC-0201643] | + (>40 +) | 
11 | CC(C)(C)OC(=O)NCCOc1ccc(-c2cc(C(F)(F)F)n[nH]2)c(O)c1-c1cncc(C(F)(F)F)c1 [NUCC-0201644] | + (>40 +) | 
12 | NCCCOc1ccc(-c2cc(C(F)(F)F)n[nH]2)c(O)c1-c1ccc(Cl)c(C(F)(F)F)c1 [NUCC-0201646] | + (>40 +) | 
13 | Cn1nc(C(F)(F)F)cc1-c1ccc(OCc2ccc([N+](=O)[O-])cc2)c(-c2cc(C(F)(F)F)cc(C(F)(F)F)c2)c1O [NUCC-0201648] | + (>40 +) | 
14 | Cn1nc(-c2ccc(OCc3ccc([N+](=O)[O-])cc3)c(-c3cc(C(F)(F)F)cc(C(F)(F)F)c3)c2O)cc1C(F)(F)F [NUCC-0201649] | + (>40 +) | 
15 | CCCCOc1ccc(-c2cc(C(F)(F)F)nn2C)c(O)c1-c1cc(C(F)(F)F)cc(C(F)(F)F)c1 [NUCC-0201651] | + (>40 +) | 
16 | CCCCOc1ccc(-c2cc(C(F)(F)F)n(C)n2)c(O)c1-c1cc(C(F)(F)F)cc(C(F)(F)F)c1 [NUCC-0201652] | + (>40 +) | 
17 | Cn1nc(C(F)(F)F)cc1-c1ccc(OCc2ccc([N+](=O)[O-])cc2)c(-c2cncc(C(F)(F)F)c2)c1O [NUCC-0201653] | +++ (10-30 +++) | 
18 | Cn1nc(-c2ccc(OCc3ccc([N+](=O)[O-])cc3)c(-c3cncc(C(F)(F)F)c3)c2O)cc1C(F)(F)F [NUCC-0201654] | + (>40 +) | 
19 | Cn1nc(C(F)(F)F)cc1-c1ccc(OCCCNC(=O)OC(C)(C)C)c(-c2cncc(C(F)(F)F)c2)c1O [NUCC-0201655] | + (>40 +) | 

Row | Compound | Potency code [1] | other results
20 | Cn1nc(-c2ccc(OCCCNC(=O)OC(C)(C)C)c(-c3cncc(C(F)(F)F)c3)c2O)cc1C(F)(F)F [NUCC-0201656] | + (>40 +) | 
21 | Cn1nc(C(F)(F)F)cc1-c1ccc(OCCCNC(=O)OC(C)(C)C)c(-c2ccc(Cl)c(C(F)(F)F)c2)c1O [NUCC-0201657] | + (>40 +) | 
22 | Cn1nc(-c2ccc(OCCCNC(=O)OC(C)(C)C)c(-c3ccc(Cl)c(C(F)(F)F)c3)c2O)cc1C(F)(F)F [NUCC-0201658] | ++ (30-40 ++) | 
23 | C#CCCC(=O)NCCCOc1ccc(-c2cc(C(F)(F)F)n[nH]2)c(O)c1-c1ccc(Cl)c(C(F)(F)F)c1 [NUCC-0201659] | + (>40 +) | 
24 | O=C(CCc1cn(CCOCCOCCOCC(=O)Nc2cccc3c2C(=O)N(C2CCC(=O)NC2=O)C3=O)nn1)NCCOc1ccc(-c2cc(C(F)(F)F)n[nH]2)c(O)c1-c1cncc(C(F)(F)F)c1 (stereo not drawn) [NUCC-0201660] | + (>40 +) | 
25 | Nc1ccc(COc2ccc(-c3cc(C(F)(F)F)n[nH]3)c(O)c2-c2cncc(C(F)(F)F)c2)cc1 [NUCC-0201661] | + (>40 +) | 
26 | C#CCC(N=[N+]=[N-])C(=O)NCCCOc1ccc(-c2cc(C(F)(F)F)n(C)n2)c(O)c1-c1cncc(C(F)(F)F)c1 (stereo not drawn) [NUCC-0201694] | + (>40 +) | 
27 | C#CCC(N=[N+]=[N-])C(=O)NCCCOc1ccc(-c2cc(C(F)(F)F)nn2C)c(O)c1-c1ccc(Cl)c(C(F)(F)F)c1 (stereo not drawn) [NUCC-0201695] | + (>40 +) | 
28 | C#CCC(N=[N+]=[N-])C(=O)NCCCOc1ccc(-c2cc(C(F)(F)F)nn2C)c(O)c1-c1cncc(C(F)(F)F)c1 (stereo not drawn) [NUCC-0201696] | ++ (30-40 ++) | 
29 | C#CCC(N=[N+]=[N-])C(=O)NCCOc1ccc(-c2cc(C(F)(F)F)n[nH]2)c(O)c1-c1cncc(C(F)(F)F)c1 (stereo not drawn) [NUCC-0201697] | + (>40 +) | 
30 | C#CCC(N=[N+]=[N-])C(=O)Nc1ccc(COc2ccc(-c3cc(C(F)(F)F)nn3C)c(O)c2-c2cncc(C(F)(F)F)c2)cc1 (stereo not drawn) [NUCC-0201698] | + (>40 +) | 
31 | C#CCC(N=[N+]=[N-])C(=O)Nc1ccc(COc2ccc(-c3cc(C(F)(F)F)n(C)n3)c(O)c2-c2cncc(C(F)(F)F)c2)cc1 (stereo not drawn) [NUCC-0201699] | + (>40 +) | 
32 | Cn1nc(C(F)(F)F)cc1-c1ccc(OCCCNC(=O)COCCOCCOCCn2cc(COc3cccc4c3C(=O)N(C3CCC(=O)NC3=O)C4=O)nn2)c(-c2ccc(Cl)c(C(F)(F)F)c2)c1O (stereo not drawn) [NUCC-0201702] | + (>40 +) | 
33 | Cn1nc(C(F)(F)F)cc1-c1ccc(OCCCNC(=O)COCCOCCOCCn2cc(COc3cccc4c3C(=O)N(C3CCC(=O)NC3=O)C4=O)nn2)c(-c2cncc(C(F)(F)F)c2)c1O (stereo not drawn) [NUCC-0201703] | + (>40 +) | 
34 | O=C(COCCOCCOCCn1cc(COc2cccc3c2C(=O)N(C2CCC(=O)NC2=O)C3=O)nn1)NCCOc1ccc(-c2cc(C(F)(F)F)n[nH]2)c(O)c1-c1cncc(C(F)(F)F)c1 (stereo not drawn) [NUCC-0201704] | + (>40 +) | 
35 | C#CCOc1cccc2c1C(=O)N(C1CCC(=O)NC1=O)C2=O (stereo not drawn) [NUCC-0201705] | + (>40 +) | 
36 | Oc1c(-c2cc(C(F)(F)F)[nH]n2)ccc(OCc2ccc(Cl)cc2)c1-c1ccsc1 [NUCC-0201909] | + (>40 +) | 
37 | Oc1c(-c2cc(C(F)(F)F)[nH]n2)ccc(OCc2ccc(Cl)cc2)c1C1CC1 [NUCC-0201910] | + (>40 +) | 
38 | N#Cc1ccc(COc2ccc(-c3cc(C(F)(F)F)[nH]n3)c(O)c2-c2ccc(Cl)c(C(F)(F)F)c2)cc1 [NUCC-0201911] | + (>40 +) | 

Row | Compound | Potency code [1] | other results
39 | Cn1nc(-c2ccc(OCc3ccc(C#N)cc3)c(-c3ccc(Cl)c(C(F)(F)F)c3)c2O)cc1C(F)(F)F [NUCC-0201912] | + (>40 +) | 
40 | Cn1nc(C(F)(F)F)cc1-c1ccc(OCc2ccc(C#N)cc2)c(-c2ccc(Cl)c(C(F)(F)F)c2)c1O [NUCC-0201913] | + (>40 +) | 
41 | Cn1nc(C(F)(F)F)cc1-c1ccc(CNc2ccc(Cl)cc2)c(-c2ccc(Cl)c(C(F)(F)F)c2)c1O [NUCC-0202414] |  | IC50 (CMV reporter): > 50 µM; IC50 ([2]; class symbols): 5 to 10 µM
42 | Cn1nc(C(F)(F)F)cc1-c1ccc(COc2ccc(Cl)cc2)c(-c2ccc(Cl)c(C(F)(F)F)c2)c1O [NUCC-0202416] |  | IC50 (CMV reporter): > 50 µM; IC50 ([2]; class symbols): < 5 µM
43 | Cn1nc(-c2ccc(CNc3ccc(Cl)cc3)c(-c3ccc(Cl)c(C(F)(F)F)c3)c2O)cc1C(F)(F)F [NUCC-0202417] |  | IC50 (CMV reporter): > 50 µM; IC50 ([2]; given as numeric bound): > 50 µM
44 | CC(Oc1ccc(-c2cc(C(F)(F)F)nn2C)c(O)c1-c1ccc(Cl)c(C(F)(F)F)c1)c1ccc(Cl)cc1 (stereo not drawn) [NUCC-0202418] |  | IC50 (CMV reporter): > 50 µM; IC50 ([2]; class symbols): 5 to 10 µM
45 | Cn1nc(-c2ccc(COc3ccc(Cl)cc3)c(-c3ccc(Cl)c(C(F)(F)F)c3)c2O)cc1C(F)(F)F [NUCC-0202421] |  | IC50 (CMV reporter): > 50 µM; IC50 ([2]; given as numeric bound): > 50 µM
46 | Cn1nc(-c2ccc(OCc3ccc(Cl)cc3)c(Oc3ccc(F)cn3)c2O)cc1C(F)(F)F [NUCC-0202422] |  | IC50 (CMV reporter): > 50 µM; IC50 ([2]; given as numeric bound): > 50 µM
47 | Cn1nc(C(F)(F)F)cc1-c1ccc(N(Cc2ccc(Cl)cc2)C(=O)c2ccc(C(F)(F)F)c(Cl)c2)cc1O [NUCC-0202423] |  | IC50 (CMV reporter): > 50 µM; IC50 ([2]; class symbols): < 5 µM
48 | Cn1nc(-c2ccc(N(Cc3ccc(Cl)cc3)C(=O)c3ccc(C(F)(F)F)c(Cl)c3)cc2O)cc1C(F)(F)F [NUCC-0202424] |  | IC50 (CMV reporter): > 50 µM; IC50 ([2]; given as numeric bound): > 50 µM
49 | COCCOc1ccc(-c2cc(C(F)(F)F)nn2C)c(O)c1-c1ccc(Cl)c(C(F)(F)F)c1 [NUCC-0202425] |  | IC50 (CMV reporter): > 50 µM; IC50 ([2]; class symbols): 10 to 50 µM
50 | COCCOc1ccc(-c2cc(C(F)(F)F)n(C)n2)c(O)c1-c1ccc(Cl)c(C(F)(F)F)c1 [NUCC-0202426] |  | IC50 (CMV reporter): > 50 µM; IC50 ([2]; given as numeric bound): > 50 µM
51 | Cn1nc(C(F)(F)F)cc1-c1ccc(OC2CCOCC2)c(-c2ccc(Cl)c(C(F)(F)F)c2)c1O [NUCC-0202427] |  | IC50 (CMV reporter): > 50 µM; IC50 ([2]; class symbols): 10 to 50 µM
52 | Cn1nc(-c2ccc(OC3CCOCC3)c(-c3ccc(Cl)c(C(F)(F)F)c3)c2O)cc1C(F)(F)F [NUCC-0202428] |  | IC50 (CMV reporter): > 50 µM; IC50 ([2]; given as numeric bound): > 50 µM
53 | COc1ccc(-c2cc(C(F)(F)F)nn2C)c(O)c1-c1ccc(Cl)c(C(F)(F)F)c1 [NUCC-0202429] |  | IC50 (CMV reporter): > 50 µM; IC50 ([2]; class symbols): < 5 µM
54 | COc1ccc(-c2cc(C(F)(F)F)n(C)n2)c(O)c1-c1ccc(Cl)c(C(F)(F)F)c1 [NUCC-0202430] |  | IC50 (CMV reporter): > 50 µM; IC50 ([2]; given as numeric bound): > 50 µM
55 | Cn1nc(C(F)(F)F)cc1-c1ccc(OC2CCNCC2)c(-c2ccc(Cl)c(C(F)(F)F)c2)c1O [NUCC-0202431] |  | IC50 (CMV reporter): 39 µM; IC50 ([2]; class symbols): 10 to 50 µM
56 | Cn1nc(-c2ccc(OC3CCNCC3)c(-c3ccc(Cl)c(C(F)(F)F)c3)c2O)cc1C(F)(F)F [NUCC-0202432] |  | IC50 (CMV reporter): 28 µM; IC50 ([2]; class symbols): 10 to 50 µM
